# Assay results taken from patent US20230390251A1, “METHODS OF TREATING RIBONUCLEOTIDE REDUCTASE-RELATED DISEASES WITH A RIBONUCLEOTIDE REDUCTASE INHIBITOR” (TAIHO PHARMACEUTICAL CO., LTD., priority 2020, published 2023).
# How the values were obtained:
# [1] = Body weight change as index of toxicity in MV-4-11 tumor-bearing nude mice; format: in vivo
# [2] = test system: A673 cells; assay: Cell proliferation assay in A673 cells treated with siRNA against SLFN11; format: cell-based; conditions: A673 Ewing sarcoma cells, siSLFN11 vs siControl, 3 days of exposure
# Procedure: (§1) A673 cells, NCI-H460 cells and CFPAC-1 cells were transfected with 1 nM siRNAs for 24 h using Lipofectaminet®RNAiMAX Reagent (Thermo Fisher Scientific Inc.) and then re-seeded onto a 96-well plate for cell proliferation assay and caspase induction assay and onto dishes for immunoblotting analysis. siRNAs were obtained from Thermo Fisher Scientific Inc. as follows: Silencer® Select Negative Control #1 siRNA (#4390843 used as siControl), SLFN11 Silencer® Select Pre-designed siRNA (#s40703 used as siSLFN11-1, #s40704 as siSLFN11-2, and #s40702 as siSLFN11-3).
# (§2) Cell proliferation assay was performed in accordance with conventional methods, available in Hasako, et al., ibid. Briefly, cells treated with siRNAs for 24 h were plated onto 96 well plate and incubated for 24 h, followed by 3 days of exposure to the compound A. After compound exposure, viable cells were detected by using the CellTiter-Glo luminescent cell viability assay (Promega).
# [3] = test system: NCI-H460 cells; assay: Cell proliferation assay in NCI-H460 cells treated with siRNA against SLFN11; format: cell-based; conditions: non-small cell lung cancer cell line NCI-H460, siSLFN11 vs siControl, 3 days of exposure
# Procedure: as §1, §2
# [4] = test system: CFPAC-1 cells; assay: Cell proliferation assay in CFPAC-1 cells treated with siRNA against SLFN11; format: cell-based; conditions: pancreatic cancer cell line CFPAC-1, siSLFN11 vs siControl, 3 days of exposure
# Procedure: as §1, §2
# [5] = test system: NCI-H460 cells; assay: Caspase-Glo 3/7 caspase induction assay in NCI-H460 cells treated with siRNA against SLFN11; format: cell-based; conditions: 10 micro mol/L, 24 h; NCI-H460 cells transfected with siRNA against SLFN11
# Procedure: as §1
# (§3) Caspase induction assay was performed in accordance with conventional methods, available in Hasako., et al., ibid. Briefly, the cells with siRNAs for 24 h were seeded onto 96 well plate, incubated for 24 h, and then treated with Compound A for 24 h. Caspase induction was detected by using the Caspase-Glo 3/7 assay (Promega).
# [6] = test system: CFPAC-1 cells; assay: Caspase-Glo 3/7 caspase induction assay in CFPAC-1 cells treated with siRNA against SLFN11; format: cell-based; conditions: 10 micro mol/L, 24 h; CFPAC-1 cells transfected with siRNA against SLFN11
# Procedure: as §1, §3
# [7] = biological target: T1, Ribonucleotide reductase (RNR) (Homo sapiens, UniProt P23921+P31350); conditions: from the literature (NPL 7; PL 1); cited from earlier work
# T1 sequence (P23921 1-792): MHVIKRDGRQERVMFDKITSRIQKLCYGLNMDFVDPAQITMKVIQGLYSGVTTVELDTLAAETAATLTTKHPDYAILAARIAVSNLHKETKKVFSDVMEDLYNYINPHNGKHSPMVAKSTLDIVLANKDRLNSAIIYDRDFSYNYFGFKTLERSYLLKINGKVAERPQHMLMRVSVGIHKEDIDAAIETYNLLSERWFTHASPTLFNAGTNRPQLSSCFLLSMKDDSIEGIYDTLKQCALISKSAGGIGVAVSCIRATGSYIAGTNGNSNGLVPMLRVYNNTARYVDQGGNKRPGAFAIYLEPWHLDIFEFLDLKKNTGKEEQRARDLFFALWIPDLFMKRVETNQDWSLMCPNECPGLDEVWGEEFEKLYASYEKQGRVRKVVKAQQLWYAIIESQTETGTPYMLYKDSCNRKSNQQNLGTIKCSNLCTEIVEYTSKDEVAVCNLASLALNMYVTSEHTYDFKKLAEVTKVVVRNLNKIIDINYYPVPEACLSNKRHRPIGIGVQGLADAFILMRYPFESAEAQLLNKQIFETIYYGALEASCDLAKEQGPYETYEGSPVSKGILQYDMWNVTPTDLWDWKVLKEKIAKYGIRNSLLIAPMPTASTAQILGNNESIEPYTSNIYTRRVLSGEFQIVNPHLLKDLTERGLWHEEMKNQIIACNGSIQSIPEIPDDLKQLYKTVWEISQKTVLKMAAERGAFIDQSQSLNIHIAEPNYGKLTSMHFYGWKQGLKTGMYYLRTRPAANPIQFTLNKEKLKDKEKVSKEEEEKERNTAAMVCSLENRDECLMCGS
# T1 sequence (P31350 1-389): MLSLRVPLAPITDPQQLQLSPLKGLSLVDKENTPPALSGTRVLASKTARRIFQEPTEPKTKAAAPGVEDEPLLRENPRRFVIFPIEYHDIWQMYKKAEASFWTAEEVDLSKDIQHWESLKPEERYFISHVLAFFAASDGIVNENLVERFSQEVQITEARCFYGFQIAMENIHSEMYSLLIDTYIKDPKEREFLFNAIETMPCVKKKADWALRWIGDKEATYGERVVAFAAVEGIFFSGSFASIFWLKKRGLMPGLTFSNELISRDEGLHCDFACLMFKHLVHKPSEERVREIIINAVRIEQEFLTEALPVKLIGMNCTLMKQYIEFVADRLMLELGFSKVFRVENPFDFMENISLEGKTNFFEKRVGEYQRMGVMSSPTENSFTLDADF
compound,measurement,setting,value
"Cc1ccc(F)c([C@@H](C)[C@H](NS(=O)(=O)c2ccc(Cl)cc2C(N)=O)c2n[nH]c(=O)o2)c1C [Compound A, 5-chloro-2-(N-((1S,2R)-2-(6-fluoro-2,3-dimethylphenyl)-1-(5-oxo-4,5-dihydro-1,3,4-oxadiazol-2-yl)propyl)sulfamoyl)benzamide]","recovery indicated by BW change %, Group 3QW1-1 compared with Group C-1","[1]; 3QW (consecutive) 233 mg/kg/day vs continuous 100 mg/kg/day, total dosage 1400 mg/kg, Day 15, t-test p<0.05",better with a statistically significant difference relative to Group C-1
same,"recovery indicated by BW change %, Group 3QW1-2 compared with Group C-2","[1]; 3QW (consecutive) 350 mg/kg/day vs continuous 150 mg/kg/day, total dosage 2100 mg/kg, Day 15, t-test p<0.05",better with a statistically significant difference relative to Group C-2
same,"recovery indicated by BW change %, Group 3QW2-1 compared with Group C-1","[1]; 3QW (every other day) 233 mg/kg/day vs continuous 100 mg/kg/day, total dosage 1400 mg/kg, Day 15, t-test p<0.05",better with a statistically significant difference relative to Group C-1
same,"recovery indicated by BW change %, Group 3QW2-2 compared with Group C-2","[1]; 3QW (every other day) 350 mg/kg/day vs continuous 150 mg/kg/day, total dosage 2100 mg/kg, Day 15, t-test p<0.05",better with a statistically significant difference relative to Group C-2
same,body weight loss (BW change %),"[1]; 3QW Dosing Group 1, 233 or 350 mg/kg/day orally Days 1-3 and 8-10",body weight loss was observed
same,body weight loss (BW change %),"[1]; 3QW Dosing Group 2, 233 or 350 mg/kg/day orally Days 1, 3, 5, 8, 10 and 12",body weight loss was observed
same,"BW change %, Group 5QW2-1 compared with Group C-1","[1]; 5QW (2 on/1 off/3 on/1 off) 140 mg/kg/day vs continuous 100 mg/kg/day, total dosage 1400 mg/kg, Day 15",a statistically significant difference could not be observed
same,"recovery indicated by BW change %, Group 5QW2-2 compared with Group C-2","[1]; 5QW (2 on/1 off/3 on/1 off) 210 mg/kg/day vs continuous 150 mg/kg/day, total dosage 2100 mg/kg, Day 15, t-test p<0.05",better with a statistically significant difference relative to Group C-2
same,"recovery indicated by BW change %, Group 5QW1-1 compared with Group C-1","[1]; 5QW (consecutive) 140 mg/kg/day vs continuous 100 mg/kg/day, total dosage 1400 mg/kg, Day 15, t-test p<0.05",better with a statistically significant difference relative to Group C-1
same,"recovery indicated by BW change %, Group 5QW1-2 compared with Group C-2","[1]; 5QW (consecutive) 210 mg/kg/day vs continuous 150 mg/kg/day, total dosage 2100 mg/kg, Day 15, t-test p<0.05",better with a statistically significant difference relative to Group C-2
same,body weight loss (BW change %),"[1]; 5QW Dosing Group 1, 140 or 210 mg/kg/day orally Days 1-5 and 8-12",body weight loss was observed
same,body weight loss (BW change %),"[1]; 5QW Dosing Group 2, 140 or 210 mg/kg/day orally Days 1-2, 4-6, 8-9 and 11-13",body weight loss was observed
same,body weight loss (BW change %),"[1]; Continuous Dosing Group, 100 or 150 mg/kg/day orally once daily Day 1 to Day 14",body weight loss was observed
same,"BW change %, Group QOD-1 compared with Group C-1","[1]; QOD 200 mg/kg/day vs continuous 100 mg/kg/day, total dosage 1400 mg/kg",a statistically significant difference could not be observed
same,"recovery indicated by BW change %, Group QOD-2 compared with Group C-2","[1]; QOD 300 mg/kg/day vs continuous 150 mg/kg/day, total dosage 2100 mg/kg, Day 15, t-test p<0.05",better with a statistically significant difference compared with Group C-2
same,body weight loss (BW change %),"[1]; QOD Dosing Group, 200 or 300 mg/kg/day orally every other day for two weeks",body weight loss was observed
same,"recovery indicated by BW change %, Group QW-1 compared with Group C-1","[1]; QW 700 mg/kg/day vs continuous 100 mg/kg/day, total dosage 1400 mg/kg, Day 15, t-test p<0.05",better with a statistically significant difference than Group C-1
same,"recovery indicated by BW change %, Group QW-2 compared with Group C-2","[1]; QW 1050 mg/kg/day vs continuous 150 mg/kg/day, total dosage 2100 mg/kg, Day 15, t-test p<0.05",better with Group QW-2 having a statistically significant difference relative to Group C-2
same,body weight loss (BW change %),"[1]; QW Dosing Group, 700 or 1050 mg/kg/day orally once per week for two weeks",body weight loss was observed
same,effect of SLFN11 knockdown with siRNA on the cytotoxic effect,[2],SLFN11 knockdown significantly suppressed the cytotoxic effect
same,effect of SLFN11 knockdown with siRNA on the cytotoxic effect,[3],SLFN11 knockdown significantly suppressed the cytotoxic effect
same,effect of SLFN11 knockdown with siRNA on the cytotoxic effect,[4],SLFN11 knockdown significantly suppressed the cytotoxic effect
same,compound-induced caspase-3/7 activation after SLFN11 knockdown,[5],suppression
same,compound-induced caspase-3/7 activation after SLFN11 knockdown,[6],suppression
same,RNR inhibitory activity,[7],potent
